Data reported in EP4205737A1, “COMPOSITION FOR PREVENTION, AMELIORATION, OR TREATMENT OF INFLAMMATORY DISEASES OR IMMUNE DISEASES COMPRISING GANCAONIN N AS ACTIVE INGREDIENT” (UNIVERSITY-INDUSTRY COOPERATION GROUP OF KYUNG HEE …, priority 2020, dated 2022).

Columns and labels:
p65 = assay: MAPK/NF-κB signaling pathway: p65 in LPS-stimulated A549 cells; assay type: cell-based, human
Procedure: (§1) RAW264.7 cells and A549 cells were dispensed into 6-well plates (1 × 10^6 cells/well) and cultured under conditions of 37°C and 5% CO2. After the culturing, the Raw 264.7 cells were treated with 1 µg/mL of lipopolysaccharide (LPS) and the A549 cells were treated with 5 µg/mL of lipopolysaccharide (LPS) and with 5 µM to 40 µM of gancaonin N, and the cells were cultured for 24 hours or 6 hours. Then, the cells were lysed using a lysis buffer. In addition, the left lung extracted from each mouse was lysed using RIPA buffer. SDS-PAGE electrophoresis was performed on the cell and tissue lysates to separate proteins by side, and 5% bovine serum albumin was used for culturing and for blocking antibodies against PGE2 (1:500), IL-1β (1:500), IL-6 (1:500), TNF-α (1:500), i-NOS (1:500), COX-2 (1:1000), P-ERK1/2 (1:1000), ERK1/2 (1:3000), P-p38 (1:1000), p38 (1:3000), NF-κB p65 (1:1000), Lamin B1 (1:1000), and β-actin (1: 5,000).
A549 cells were dispensed into 6-well plates (1 × 10^4 cells/well) and cultured under conditions of 37°C and 5% CO2. After the culturing, the A549 cells were treated with of 5 ug/mL of lipopolysaccharide (LPS) and with 5 µM to 40 µM of gancaonin N, and the cells were then cultured for 6 hours. […] For fluorescence observation, EVOSR Cell Imaging systems (Thermo Fisher Scientific, Waltham, MA, USA) were used. […]

RAW264.7 cells = assay: Cell viability analysis (MTT), RAW264.7 cells; assay type: cell-based, murine; conditions: Raw264.7 cells, 5, 10, 20, 40 µM, 24 hours, compared to the control group (FIG. 1A)
Procedure: RAW264.7 murine macrophage cells were purchased from Korean Cell Line Bank (in Seoul, South Korea). A549 human alveolar basal epithelial cells were purchased from American Type Culture Collection (in ATCC, MD, USA). The cells were cultured in DMEM medium (manufactured by Corning Inc., NY, USA) containing 10% FBS (manufactured by Gibco, NY, USA) and 1X antibiotic-antimycotic solution (manufactured by ABAM, Corning Inc., NY, USA) under conditions of 37°C and 5% CO2.
To evaluate the cytotoxicity of gancaonin N, RAW264.7 cells and A549 cells were dispensed into 96-well plates (1 × 10^4 cells/well) and cultured under conditions of 37°C and 5% CO2. After the culturing, the cells were treated with gancaonin N at concentrations of 5, 10, 20, or 40 µM for 24 hours, and MTT solution (5 mg/mL) was added to each well. After adding 100 µL of dimethyl sulfoxide (DMSO, manufactured by Sigma-Aldrich, St. Louis, MO, USA), the absorbance was measured at 540 nm using a microplate reader (manufactured by Bio-Rad Hercules, CA, USA).
To examine the cytotoxicity of gancaonin N, the inventors treated Raw264.7 cells and A549 cells with gancaonin N according to the methods of Examples 1 to 4 and then measured cell viability.

nitric oxide (NO) = assay: Nitric oxide (NO) measurement (Griess reagent) in LPS-stimulated RAW264.7 cells; assay type: cell-based, murine; conditions: pretreated 2 hours before LPS 1 µg/mL, 5 to 40 µM, 24 hours, as treatment concentration increased (FIG. 2A)
Procedure: Raw264.7 cells and A549 cells were dispensed into 6-well plates (6 × 10^5 cells/well) and cultured under conditions of 37°C and 5% CO2. After the culturing, the cells were treated with 1 µg/mL of lipopolysaccharide (LPS) and with 5 µM to 40 µM of gancaonin N and cultured for 24 hours, and the concentration of NO produced was determined using the cell culture supernatant. The production of NO was measured by reading the absorbance at 540 nm using Griess reagent. Then, a standard curve was drawn using […], and the result value was expressed as […].
To investigate the anti-inflammatory effect of gancaonin N, the inventors pretreated RAW264.7 cells with gancaonin N, 2 hours before stimulation with LPS, and measured the amount of NO production as described in Examples 1 to 5 above to determine change in the amount of NO production according to the concentration of gancaonin N used to treat the cells.

IL-1β = assay: Western blotting of IL-1β protein in LPS-stimulated A549 cells; assay type: cell-based, human; conditions: LPS 5 µg/mL, 5 to 40 µM (FIG. 4B)
Procedure: as §1
For the pro-inflammatory cytokines whose mRNA expression inhibition was confirmed as above, the expression level of the protein encoded by the mRNA was further checked. To determine the protein expression level, A549 cells were treated with LPS and gancaonin N as described in Examples 1 to 8, and the protein expression levels were checked.

COX-2 = assay: Western blotting of COX-2 in LPS-stimulated RAW264.7 cells; assay type: cell-based, murine; conditions: LPS 1 µg/mL, 5 to 40 µM, as treatment concentration increased (FIG. 2D)
Procedure: as §1
To investigate the anti-inflammatory effect of gancaonin N, the inventors treated Raw264.7 cells with LPS and Gancaonin N, as described in Examples 1 to 6, and evaluated the expression level of inflammation-inducing factors. Thus, the inhibitory effect of gancaonin N on inflammation-related factors was specifically confirmed.

**Q.** What does the source list for COc1ccc(-c2coc3cc(O)c(CC=C(C)C)c(O)c3c2=O)c(O)c1 [gancaonin N, 5,7-dihydroxy-3-(2-hydroxy-4-methoxyphenyl)-6-(3-methylbut-2-enyl)chromen-4-one]?
**A.** activity/protein expression levels of p65 (p65; 5µM to 40 µM 2 hours before LPS treatment (FIG. 5C)): significantly reduced; amount of gancaonin N at which the inhibitory effect on the activity/protein expression levels of p65 was most excellent (p65; LPS, tested 5µM to 40 µM): 40 µM; cell viability (RAW264.7 cells): did not decrease; production of NO (nitric oxide (NO)): significantly decreased; protein expression of IL-1β (IL-1β): significantly inhibited; expression level of protein of COX-2 (COX-2): significantly decreased
